The source made the active and inactive calls. No cut-off for these calls is given here.
How the values were obtained:
[1] = Half life in CD-1 mouse blood at 1 uM by LC-MS/MS analysis; type: ADME, tissue-based
Canis familiaris [2] = assay: Toxicity in dog assessed as effect on pulmonary system functions administered as single dose; type: organism-based, Canis lupus familiaris; details: in vivo
[3] = Clearance in Wistar Han rat plasma at 1 mg/kg, iv administered as single dose; type: ADME, organism-based
[4] = Clearance in Nu/Nu mouse plasma at 1 mg/kg, iv administered as single dose; type: ADME, organism-based
[5] = Fraction unbound in mouse plasma at 2 uM by LC-MS/MS based equilibrium dialysis method; type: ADME, cell-free
[6] = Drug metabolism in human liver microsomes assessed as demethylation; type: ADME, microsome
[7] = target: Tyrosine-protein kinase BTK (Homo sapiens) (UniProt Q06187); assay: Inhibition of His-tagged full-length recombinant human BTK cytoplasmic domain expressed in Baculovirus expression system at 1 uM by FRET-based Z'-LYTE assay
[8] = target: Proto-oncogene tyrosine-protein kinase ROS (Homo sapiens) (UniProt P08922); assay: Inhibition of ROS (unknown origin) at 1 uM by cell based assay
[9] = Half life in human blood at 1 uM by LC-MS/MS analysis; type: ADME, tissue-based
Rattus norvegicus [10] = assay: Toxicity in rat assessed as effect on pulmonary system functions administered as single dose; type: organism-based; details: in vivo
[11] = Apparent intrinsic hepatic clearance in mouse hepatocytes; type: ADME, cell-based, Hepatocyte; details: read-out: CLH(app)
[12] = target: Voltage-gated inwardly rectifying potassium channel KCNH2 (Homo sapiens, UniProt Q12809); assay: Inhibition of human ERG
CYP2C8 = CYP2C8 (Homo sapiens, UniProt P10632); assay: Inhibition of human CYP2C8 at 10 uM; type: ADME
Canis familiaris [13] = assay: Toxicity in dog assessed as effect on central nervous system functions administered as repeated dosing; type: organism-based, Canis lupus familiaris; details: in vivo
[14] = target: Tyrosine-protein kinase TXK (Homo sapiens) (UniProt P42681); assay: Inhibition of GST-tagged full-length recombinant human TXK cytoplasmic domain expressed in Baculovirus expression system at 1 uM by FRET-based Z'-LYTE assay
[15] = target: Tyrosine-protein kinase Blk (Homo sapiens) (UniProt P51451); assay: Inhibition of BLK (unknown origin) at 1 uM by cell based assay
Salmonella typhimurium = assay: Mutagenicity in Salmonella typhimurium by Ames test; type: toxicity, organism-based; details: salmonella enterica subsp. enterica serovar typhimurium
CYP2D6 = CYP2D6 (Homo sapiens, UniProt P10635); assay: Inhibition of human CYP2D6 at 10 uM; type: ADME
Canis familiaris [16] = assay: Toxicity in dog assessed as electrocardiogram changes administered as single dose; type: organism-based, Canis lupus familiaris; details: in vivo
[17] = Time-dependent inhibition of CYP450 (unknown origin); type: ADME; details: human
[18] = target: Receptor tyrosine-protein kinase erbB-4 (Homo sapiens) (UniProt Q15303); assay: Inhibition of N-terminal GST-tagged recombinant human ErbB4 cytoplasmic domain (708 to 993 residues) expressed in Baculovirus expression system at 1 uM by FRET-based Z'-LYTE assay
Rattus norvegicus [19] = assay: Toxicity in rat assessed as electrocardiogram changes administered as repeated dosing; type: organism-based; details: in vivo
[20] = target: Proto-oncogene tyrosine-protein kinase ROS (Homo sapiens) (UniProt P08922); assay: Inhibition of GST-tagged recombinant human ROS cytoplasmic domain (1883 to 2347 residues) expressed in Baculovirus expression system at 1 uM by FRET-based Z'-LYTE assay
[21] = target: Cytoplasmic tyrosine-protein kinase BMX (Homo sapiens) (UniProt P51813); assay: Inhibition of His-tagged full-length recombinant human BMX cytoplasmic domain expressed in Baculovirus expression system at 1 uM by FRET-based Z'-LYTE assay
[22] = target: Tyrosine-protein kinase Fer (Homo sapiens) (UniProt P16591); assay: Inhibition of GST-tagged recombinant human FER catalytic domain (541 to 822 residues) expressed in Baculovirus expression system at 1 uM by FRET-based Z'-LYTE assay
[23] = target: Tyrosine-protein kinase BTK (Homo sapiens) (UniProt Q06187); assay: Inhibition of BTK (unknown origin) at 1 uM by cell based assay
[24] = Fraction unbound in rat plasma at 2 uM by LC-MS/MS based equilibrium dialysis method; type: ADME, cell-free
Canis familiaris [25] = assay: Toxicity in dog assessed as effect on pulmonary system functions administered as repeated dosing; type: organism-based, Canis lupus familiaris; details: in vivo
[26] = Oral bioavailability in Nu/Nu mouse at 1 mg/kg administered as single dose; type: ADME, organism-based; details: in vivo
[27] = Volume of distribution at steady state in Wistar Han rat at 1 mg/kg, iv administered as single dose; type: ADME, organism-based; details: in vivo, read-out: Vdss
[28] = Apparent intrinsic hepatic clearance in dog hepatocytes; type: ADME, cell-based, Canis lupus familiaris, Hepatocyte; details: read-out: CLH(app)
[29] = Half life in Beagle dog blood at 1 uM by LC-MS/MS analysis; type: ADME, tissue-based, Canis lupus familiaris
CYP1A2 = CYP1A2 (Homo sapiens, UniProt P05177); assay: Inhibition of human CYP1A2 at 10 uM; type: ADME
[30] = Terminal half life in Beagle dog at 1 mg/kg, iv administered as single dose; type: ADME, organism-based, Canis lupus familiaris; details: in vivo, read-out: beta t1/2 (converted)
Rattus norvegicus [31] = assay: Toxicity in rat assessed as effect on pulmonary system functions administered as repeated dosing; type: organism-based; details: in vivo
[32] = Apparent intrinsic hepatic clearance in rat hepatocytes; type: ADME, cell-based, Hepatocyte; details: read-out: CLH(app)
[33] = Clearance in Beagle dog plasma at 1 mg/kg, iv administered as single dose; type: ADME, organism-based, Canis lupus familiaris
[34] = Volume of distribution at steady state in Beagle dog at 1 mg/kg, iv administered as single dose; type: ADME, organism-based, Canis lupus familiaris; details: in vivo, read-out: Vdss

Proto-oncogene tyrosine-protein kinase ROS (Homo sapiens), sequence (P08922 whole entry, the tested form may be a part): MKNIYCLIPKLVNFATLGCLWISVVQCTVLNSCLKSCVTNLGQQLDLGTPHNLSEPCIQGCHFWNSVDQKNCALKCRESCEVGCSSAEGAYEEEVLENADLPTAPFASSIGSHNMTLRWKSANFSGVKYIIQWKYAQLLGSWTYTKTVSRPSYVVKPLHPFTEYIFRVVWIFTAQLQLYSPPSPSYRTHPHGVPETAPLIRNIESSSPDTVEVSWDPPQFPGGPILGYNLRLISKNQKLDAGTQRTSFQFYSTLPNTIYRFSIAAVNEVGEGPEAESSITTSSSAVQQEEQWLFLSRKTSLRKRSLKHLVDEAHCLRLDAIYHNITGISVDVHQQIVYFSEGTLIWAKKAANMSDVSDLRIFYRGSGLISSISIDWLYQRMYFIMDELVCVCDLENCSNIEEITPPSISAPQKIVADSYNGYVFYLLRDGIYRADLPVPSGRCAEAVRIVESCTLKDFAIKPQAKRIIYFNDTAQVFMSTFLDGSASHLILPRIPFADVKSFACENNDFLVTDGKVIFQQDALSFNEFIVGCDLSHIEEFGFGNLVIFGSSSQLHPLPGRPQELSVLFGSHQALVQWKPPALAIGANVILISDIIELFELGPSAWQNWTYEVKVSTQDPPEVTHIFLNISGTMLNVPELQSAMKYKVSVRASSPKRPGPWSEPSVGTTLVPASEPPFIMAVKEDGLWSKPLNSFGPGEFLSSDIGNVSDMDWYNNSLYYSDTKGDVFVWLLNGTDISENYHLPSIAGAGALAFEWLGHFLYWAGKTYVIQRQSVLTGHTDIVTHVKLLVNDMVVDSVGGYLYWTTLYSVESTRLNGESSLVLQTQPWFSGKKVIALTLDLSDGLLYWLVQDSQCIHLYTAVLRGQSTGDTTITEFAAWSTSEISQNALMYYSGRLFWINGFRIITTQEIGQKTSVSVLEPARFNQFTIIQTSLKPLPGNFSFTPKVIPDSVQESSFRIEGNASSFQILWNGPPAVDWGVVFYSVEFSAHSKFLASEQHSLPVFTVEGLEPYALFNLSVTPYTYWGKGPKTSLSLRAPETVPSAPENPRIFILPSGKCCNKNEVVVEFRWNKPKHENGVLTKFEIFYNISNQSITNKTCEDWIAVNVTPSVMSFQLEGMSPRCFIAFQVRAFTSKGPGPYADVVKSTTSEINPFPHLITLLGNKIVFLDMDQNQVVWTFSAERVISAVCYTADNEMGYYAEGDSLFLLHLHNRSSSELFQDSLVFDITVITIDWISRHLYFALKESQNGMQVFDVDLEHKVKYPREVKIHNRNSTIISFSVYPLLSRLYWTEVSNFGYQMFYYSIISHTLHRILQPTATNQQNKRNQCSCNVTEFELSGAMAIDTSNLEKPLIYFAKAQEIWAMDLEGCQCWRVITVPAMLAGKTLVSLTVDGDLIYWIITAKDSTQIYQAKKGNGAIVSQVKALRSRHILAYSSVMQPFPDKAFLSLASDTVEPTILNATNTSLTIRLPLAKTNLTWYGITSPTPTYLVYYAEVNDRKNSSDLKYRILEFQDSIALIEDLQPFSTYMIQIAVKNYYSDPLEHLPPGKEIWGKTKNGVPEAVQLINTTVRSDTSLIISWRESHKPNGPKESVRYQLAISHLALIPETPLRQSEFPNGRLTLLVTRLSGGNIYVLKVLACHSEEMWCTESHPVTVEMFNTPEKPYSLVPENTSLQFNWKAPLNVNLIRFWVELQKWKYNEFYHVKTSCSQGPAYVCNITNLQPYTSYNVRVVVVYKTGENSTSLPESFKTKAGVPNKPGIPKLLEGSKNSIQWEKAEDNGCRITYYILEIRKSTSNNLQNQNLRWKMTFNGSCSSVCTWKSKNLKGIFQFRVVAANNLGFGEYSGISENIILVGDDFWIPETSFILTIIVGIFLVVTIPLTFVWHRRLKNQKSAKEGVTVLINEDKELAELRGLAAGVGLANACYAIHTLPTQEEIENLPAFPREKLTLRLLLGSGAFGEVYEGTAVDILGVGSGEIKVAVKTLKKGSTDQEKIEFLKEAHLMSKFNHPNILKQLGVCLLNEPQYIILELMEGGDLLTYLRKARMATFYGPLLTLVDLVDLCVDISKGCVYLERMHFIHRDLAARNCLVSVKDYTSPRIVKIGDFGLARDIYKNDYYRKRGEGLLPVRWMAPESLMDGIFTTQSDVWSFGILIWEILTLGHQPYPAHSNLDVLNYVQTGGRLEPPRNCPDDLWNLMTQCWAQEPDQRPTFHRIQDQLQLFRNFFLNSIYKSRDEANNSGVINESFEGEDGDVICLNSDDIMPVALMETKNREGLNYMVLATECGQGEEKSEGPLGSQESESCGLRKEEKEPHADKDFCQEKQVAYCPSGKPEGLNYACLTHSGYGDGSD
Tyrosine-protein kinase BTK (Homo sapiens), sequence (Q06187 whole entry, the tested form may be a part): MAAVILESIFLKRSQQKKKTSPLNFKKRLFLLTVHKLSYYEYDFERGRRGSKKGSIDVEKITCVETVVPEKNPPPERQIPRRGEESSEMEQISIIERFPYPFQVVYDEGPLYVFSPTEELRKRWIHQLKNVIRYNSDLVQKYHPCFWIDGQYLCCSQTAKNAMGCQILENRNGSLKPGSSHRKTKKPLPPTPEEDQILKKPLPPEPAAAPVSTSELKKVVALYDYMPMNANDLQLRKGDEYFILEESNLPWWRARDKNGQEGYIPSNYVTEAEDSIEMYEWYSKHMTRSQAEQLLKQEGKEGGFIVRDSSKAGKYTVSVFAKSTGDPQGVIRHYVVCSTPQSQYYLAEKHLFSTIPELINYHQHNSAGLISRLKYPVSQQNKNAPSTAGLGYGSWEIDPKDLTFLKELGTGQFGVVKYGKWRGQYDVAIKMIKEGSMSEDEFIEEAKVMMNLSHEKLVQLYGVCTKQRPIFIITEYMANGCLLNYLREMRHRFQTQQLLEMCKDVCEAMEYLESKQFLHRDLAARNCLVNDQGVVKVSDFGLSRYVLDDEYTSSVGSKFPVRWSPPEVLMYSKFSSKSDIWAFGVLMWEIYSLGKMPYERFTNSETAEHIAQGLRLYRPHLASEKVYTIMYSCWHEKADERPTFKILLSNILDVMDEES
CYP1A2, sequence (P05177 whole entry): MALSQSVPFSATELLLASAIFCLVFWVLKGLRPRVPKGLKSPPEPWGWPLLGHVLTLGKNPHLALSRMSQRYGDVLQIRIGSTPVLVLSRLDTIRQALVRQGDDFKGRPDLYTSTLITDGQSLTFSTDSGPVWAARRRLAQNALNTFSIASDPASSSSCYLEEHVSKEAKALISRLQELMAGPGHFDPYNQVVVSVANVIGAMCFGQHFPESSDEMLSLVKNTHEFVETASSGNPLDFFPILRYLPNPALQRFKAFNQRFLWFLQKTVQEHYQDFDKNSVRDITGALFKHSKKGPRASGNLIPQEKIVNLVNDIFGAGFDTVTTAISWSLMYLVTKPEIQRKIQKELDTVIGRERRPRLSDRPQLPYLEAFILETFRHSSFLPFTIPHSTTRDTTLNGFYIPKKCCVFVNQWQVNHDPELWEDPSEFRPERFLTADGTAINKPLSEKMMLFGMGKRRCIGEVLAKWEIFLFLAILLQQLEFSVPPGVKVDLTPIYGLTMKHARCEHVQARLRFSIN
CYP2D6, sequence (P10635 whole entry): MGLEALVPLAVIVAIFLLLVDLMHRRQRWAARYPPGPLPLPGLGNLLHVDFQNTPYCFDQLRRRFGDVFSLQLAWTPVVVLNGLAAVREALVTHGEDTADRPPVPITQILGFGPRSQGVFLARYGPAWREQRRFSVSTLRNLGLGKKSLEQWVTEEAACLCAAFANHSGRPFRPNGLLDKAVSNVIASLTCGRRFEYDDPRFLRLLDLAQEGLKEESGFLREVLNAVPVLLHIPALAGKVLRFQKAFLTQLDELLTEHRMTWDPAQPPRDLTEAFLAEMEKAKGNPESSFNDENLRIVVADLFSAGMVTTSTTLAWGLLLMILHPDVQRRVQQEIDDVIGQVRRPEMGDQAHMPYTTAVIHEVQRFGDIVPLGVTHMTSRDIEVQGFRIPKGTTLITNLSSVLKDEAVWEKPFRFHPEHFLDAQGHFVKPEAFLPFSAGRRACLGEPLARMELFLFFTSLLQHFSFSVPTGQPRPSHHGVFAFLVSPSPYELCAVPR
Tyrosine-protein kinase Fer (Homo sapiens), sequence (P16591 whole entry, looked up, the tested form may be a part): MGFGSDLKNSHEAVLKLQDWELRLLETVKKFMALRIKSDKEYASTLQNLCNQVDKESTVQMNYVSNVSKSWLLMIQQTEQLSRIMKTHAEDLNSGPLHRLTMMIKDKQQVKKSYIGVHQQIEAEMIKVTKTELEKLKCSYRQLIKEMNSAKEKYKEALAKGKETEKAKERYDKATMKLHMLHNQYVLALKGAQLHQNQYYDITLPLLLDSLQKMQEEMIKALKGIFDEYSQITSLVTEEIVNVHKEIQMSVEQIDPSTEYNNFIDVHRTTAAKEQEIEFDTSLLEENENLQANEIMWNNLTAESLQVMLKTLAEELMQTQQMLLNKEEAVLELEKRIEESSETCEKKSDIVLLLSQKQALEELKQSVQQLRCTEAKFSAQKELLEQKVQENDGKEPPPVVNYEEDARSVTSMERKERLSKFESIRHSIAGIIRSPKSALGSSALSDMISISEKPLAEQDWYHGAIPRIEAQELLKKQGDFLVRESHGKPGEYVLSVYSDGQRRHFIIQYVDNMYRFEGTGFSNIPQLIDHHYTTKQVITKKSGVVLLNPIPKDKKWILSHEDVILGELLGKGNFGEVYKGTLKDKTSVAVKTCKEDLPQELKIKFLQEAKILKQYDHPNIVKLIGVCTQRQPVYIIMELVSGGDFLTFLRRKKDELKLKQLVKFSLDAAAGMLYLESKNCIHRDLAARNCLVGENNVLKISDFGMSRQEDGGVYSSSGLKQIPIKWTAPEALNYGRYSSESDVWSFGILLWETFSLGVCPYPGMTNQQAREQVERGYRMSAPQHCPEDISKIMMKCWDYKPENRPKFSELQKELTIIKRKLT

half-life at 1 µM [1]: 5.1 h | clearance [3]: 49 mL/min/kg | clearance [4]: 53 mL/min/kg | fraction unbound at 2 µM [5]: 0.2 to 0.49 | Drug metabolism [6]: Metabolite_Detected | inhibition [7]: > 50% | inhibition [8]: Active | half-life at 1 µM [9]: 5.8 h | CLint scaled [11]: 196 mL/min/kg | inhibition at 10 µM (CYP2C8): < 30% | inhibition [14]: > 50% | inhibition [15]: Active | inhibition at 10 µM (CYP2D6): < 30% | TDI [17]: Not Active | inhibition [18]: > 50% | inhibition [20]: > 50% | inhibition [21]: > 50% | inhibition [22]: Active | inhibition [23]: Active | fraction unbound at 2 µM [24]: 0.22 | bioavailability [26]: 60% | Vd [27]: 0.66 L/kg | CLint scaled [28]: 17 mL/min/kg | half-life at 1 µM [29]: 4.65 h | inhibition at 10 µM (CYP1A2): < 30% | half-life [30]: 1.3 h | CLint scaled [32]: 183 mL/min/kg | clearance [33]: 12 mL/min/kg | Vd [34]: 0.94 L/kg
SMILES: C=CC(=O)N[C@@H]1CN(c2nc(Nc3cn(C)nc3OC)c3ncn(C)c3n2)C[C@H]1F [MAVELERTINIB]
Activity (Canis familiaris [2]): Non-Toxic | Activity (Rattus norvegicus [10]): Non-Toxic | IC50 [12]: > 100 µM | Activity (Canis familiaris [13]): Non-Toxic | Activity (Salmonella typhimurium): Non-Toxic | Activity (Canis familiaris [16]): Non-Toxic | Activity (Rattus norvegicus [19]): Non-Toxic | Activity (Canis familiaris [25]): Non-Toxic | Activity (Rattus norvegicus [31]): Non-Toxic

Reference: ChEMBL document CHEMBL4177539, “Discovery of N-((3R,4R)-4-Fluoro-1-(6-((3-methoxy-1-methyl-1H-pyrazol-4-yl)amino)-9-methyl-9H-purin-2-yl)pyrrolidine-3-yl)acrylamide (PF-06747775) through Structure-Based Drug Design: A High Affinity Irreversible Inhibitor Targeting Oncogenic EGFR Mutants with Selectivity over Wild-Type EGFR” (J Med Chem, 2017)
